These results are taken from PubChem BioAssay (NCI).

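Method: 48-hour compound exposure of cells in 96-well plates, five concentrations, linear interpolation of endpoints. GI50 marks 50% less growth. At the TGI there is no net growth.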

Among the test systems are EKVX NSCLC; SW-620 colon; U251 CNS; KM12 colon; HT29 colon; OVCAR-8 ovarian; NCI-H522 lung; SN12C renal; DU-145 prostate; UO-31 renal; SNB-19 CNS.
Holding throughout (assay): NCI tumour cell line growth inhibition, 48 h

As to `O=c1[nH]cnc2c1cnn2Cc1cnnn1COCCO`, the TGI in the assay with EKVX NSCLC, in the assay on SW-620 colon, in the assay with U251 CNS, in the assay on KM12 colon, in the assay on HT29 colon and in the assay on OVCAR-8 ovarian was over 100 µM throughout. In addition, the TGI with NCI-H522 lung, in the assay on SN12C renal, in the assay on DU-145 prostate, in the assay on UO-31 renal and in the assay with SNB-19 CNS was over 100 µM in each case.
For the molecule `O=C1c2cccnc2-c2nccc3c2c1nc1ccccc13`, the TGI in the assay with EKVX NSCLC was 3.21 µM; in the assay on SW-620 colon it was 0.237 µM; in the assay on U251 CNS, 0.703 µM; in the assay on KM12 colon, 1.03 µM; in the assay on HT29 colon, 2.5 µM; with OVCAR-8 ovarian, 1.61 µM. The TGI with NCI-H522 lung was determined as 0.281 µM; with SN12C renal, 1.03 µM; in the assay with DU-145 prostate, 0.962 µM; in the assay on UO-31 renal, 0.634 µM; in the assay with SNB-19 CNS, 1.28 µM.
On to `CC1CN(CCO)CCN1c1ccccc1` (stereo unspecified), for which the TGI in the assay on EKVX NSCLC, in the assay with SW-620 colon, in the assay with U251 CNS, in the assay with KM12 colon, in the assay with HT29 colon and in the assay on OVCAR-8 ovarian was over 100 µM in each case. Further, the TGI in the assay on NCI-H522 lung, in the assay on SN12C renal, in the assay on DU-145 prostate, with UO-31 renal and with SNB-19 CNS was over 100 µM each time.
For `CC(=O)[C@@]1(c2ccccc2)CC2(CCN(C)CC2)O[C@H]1C`, the TGI in the assay with EKVX NSCLC, in the assay on SW-620 colon, in the assay with U251 CNS, in the assay on KM12 colon, with HT29 colon and in the assay with OVCAR-8 ovarian was over 100 µM throughout. The TGI in the assay with NCI-H522 lung, in the assay on SN12C renal, with DU-145 prostate, with UO-31 renal and with SNB-19 CNS was over 100 µM each time.
Consider `Fc1ccc(C(OCCN2CCC3CCC(C2)N3C/C=C/c2cccs2)c2ccc(F)cc2)cc1` (stereo unspecified), for which the TGI with EKVX NSCLC was found to be 16.5 µM; in the assay on SW-620 colon it was 19.1 µM; in the assay on U251 CNS it was 18.8 µM; in the assay on KM12 colon, 19.7 µM; in the assay on HT29 colon, 15.4 µM; in the assay with OVCAR-8 ovarian, 15.8 µM. Besides, the TGI in the assay on NCI-H522 lung is 17.7 µM; in the assay with SN12C renal, 18 µM; in the assay with DU-145 prostate it was 26 µM; in the assay on UO-31 renal, 24.3 µM; in the assay on SNB-19 CNS it was 27.9 µM.
Take `CC#CCCCC1(C)CCNC1=S` (stereo unspecified): the TGI in the assay on EKVX NSCLC, in the assay on SW-620 colon, with U251 CNS, with KM12 colon, with HT29 colon and with OVCAR-8 ovarian was over 10 µM in each case. In addition, the TGI in the assay with NCI-H522 lung, with SN12C renal, in the assay with DU-145 prostate, in the assay with UO-31 renal and in the assay on SNB-19 CNS was over 10 µM in each case.
Consider `COc1ccc([I+]c2ccc(OC)cc2)cc1`, for which the TGI in the assay with EKVX NSCLC, in the assay on SW-620 colon, in the assay with U251 CNS, in the assay on KM12 colon, in the assay with HT29 colon and in the assay on OVCAR-8 ovarian was over 100 µM each time. The TGI in the assay with NCI-H522 lung, with SN12C renal, in the assay on DU-145 prostate, in the assay with UO-31 renal and in the assay on SNB-19 CNS was over 100 µM each time. Moreover, the GI50 in the assay with SW-620 colon was 6.66 µM; with U251 CNS it was 7.58 µM; in the assay on KM12 colon, 6.63 µM; in the assay on HT29 colon, 5.54 µM; in the assay with OVCAR-8 ovarian, 3.27 µM; with NCI-H522 lung, 38.3 µM. The GI50 in the assay on SN12C renal was 29.3 µM; in the assay on DU-145 prostate it was 60.4 µM; in the assay with SNB-19 CNS, 20.9 µM.
As to `COC(=O)C12Oc3ccc(-c4ccc5c(c4O)C(O)=C4C(=O)CC(C)C(O)C4(C(=O)OC)O5)c(O)c3C(O)=C1C(=O)CC(C)C2O` (stereo unspecified), the TGI with EKVX NSCLC was 1.49 µM; in the assay with SW-620 colon, over 100 µM; with U251 CNS, 3.05 µM; with KM12 colon, over 100 µM; in the assay on HT29 colon it was 0.479 µM; with OVCAR-8 ovarian it was over 100 µM. The TGI with NCI-H522 lung is 0.309 µM; in the assay on SN12C renal, over 100 µM; in the assay on DU-145 prostate it was over 66 µM; with UO-31 renal it was 0.858 µM; with SNB-19 CNS, over 100 µM.
`NC(=S)N1N=C2c3ccccc3CCC[C@H]2[C@@H]1c1ccccc1`: the TGI in the assay on EKVX NSCLC amounted to 70.2 µM; in the assay with SW-620 colon, 15.3 µM; in the assay with U251 CNS, 17.7 µM; in the assay with KM12 colon it was 18.3 µM; in the assay with HT29 colon, 6.18 µM; with OVCAR-8 ovarian, 17.4 µM. For the same molecule, the TGI was found to be 1.42 µM in the assay with NCI-H522 lung; 19.7 µM in the assay on SN12C renal; 9.27 µM in the assay on DU-145 prostate; 15.8 µM with UO-31 renal; 25.2 µM with SNB-19 CNS.
In the case of `COc1ccc(Nc2nc(N)c(C(=O)c3ccc(Cl)cc3)s2)cc1`, the TGI in the assay on EKVX NSCLC is over 100 µM; in the assay with SW-620 colon it was over 100 µM; in the assay on U251 CNS it was 4.58 µM; with KM12 colon, 0.536 µM; in the assay on HT29 colon it was 5.28 µM; in the assay with OVCAR-8 ovarian, 15 µM. In addition, the TGI was under 0.01 µM in the assay with NCI-H522 lung; 22.3 µM in the assay on SN12C renal; 0.0558 µM in the assay with DU-145 prostate; 16 µM with UO-31 renal; 31.2 µM in the assay on SNB-19 CNS.
In the case of `C=C1CCOC2(C(O)C(C)(O)CO)NC(=O)C1(O)NC2=O` (stereo unspecified), the TGI with EKVX NSCLC, with SW-620 colon, in the assay with U251 CNS, in the assay with KM12 colon, in the assay with HT29 colon and in the assay on OVCAR-8 ovarian was over 100 µM throughout. In addition, the TGI in the assay with NCI-H522 lung, in the assay with SN12C renal, with DU-145 prostate, in the assay with UO-31 renal and in the assay with SNB-19 CNS was over 100 µM in each case.
Regarding `CCCN(CCC)C(=O)c1c(N2CCN(C)CC2)c2cccnc2n2c(C)cnc12`, the TGI was over 100 µM in the assay with EKVX NSCLC; 45.5 µM in the assay with SW-620 colon; over 100 µM in the assay on U251 CNS; over 100 µM in the assay with KM12 colon; over 100 µM in the assay on HT29 colon; over 100 µM with OVCAR-8 ovarian. Also, the TGI was over 100 µM in the assay on NCI-H522 lung; over 100 µM in the assay on SN12C renal; over 100 µM in the assay on DU-145 prostate; over 100 µM in the assay with UO-31 renal; 68.1 µM in the assay with SNB-19 CNS.
